Converted amounts (≈) assume the structure as drawn. Like-named read-outs stand apart in the source and are kept apart here.
Legend:
Assay type in all cases: cell-based
[1] = system: multidrug resistant Staphylococcus aureus Mu3; assay: MIC by CLSI broth micro-dilution, MRSA Mu3
Protocol: (§1) Aminoxy acids were synthesized by the standard peptide coupling procedures. Minimum inhibitory concentration was determined using CLSI broth micro-dilution method in 96-wells microtitre plates. Minimum inhibitory concentration is defined as the lowest concentration of the compound that inhibits visible growth of the bacteria. All experiments were performed three times. 24 compounds including aminoxy acid monomers and dipeptides have been identified to show toxicity against multidrug resistant Staphylococcus aureus Mu3 and summarized in Table 1. The minimum inhibitory concentration of compound 8 and compound 35 on other gram-positive bacteria was also evaluated and summarized in Table 2. […] As shown in FIGS. 3A-3B there are no observable hemolysis for compound 8 and compound 35 towards human red blood cell.
(§2) Bacteria were streaked from the glycerol stock into BHI agar and were incubated overnight. Single colony was picked for the overnight culture in cation-adjusted Mueller Hinton broth (CAMH), LB or BHI. The overnight culture was sub-cultured and regrew to exponential phase for the experiment.
MIC was determined by CLSI broth micro-dilution method in 96-wells microtitre plates. For compounds dissolved in water, 100 μL of 2× testing concentration was added to the first well of each column, followed by two-fold serial dilution for successive wells with 50 μL medium. For chemical compounds dissolved in DMSO, the compounds were two-fold serial diluted by DMSO in a DMSO-compatible 96-well plate. 1 μL of compound in DMSO was transferred into 96-wells microtitre plate containing 50 μL medium to give 2× testing concentration. An overnight culture of bacteria was grown into exponential phase. The bacteria culture was diluted to 1×10^6 CFU/mL and 50 μL of diluted culture were added into each well. The test plates were kept in a 37° C. incubator overnight. Optical density was recorded by DTX 880 multimode detector (Beckman Coulter, California, US). MIC is defined as the lowest concentration of the compound that inhibits visible growth of bacteria. Biological replicates were performed. CAMH was used for bacteria culture and MIC test except S. pneumoniae, L. monocytogenes, E. faecalis and M. smegmatis for which BHI was used as culture medium

MRSA-USA300LAC = assay: MIC by CLSI broth micro-dilution, MRSA-USA300LAC; settings: Staphylococcus aureus, read-out: Minimum inhibitory concentration
Protocol: as §1, §2
(§3) MIC was determined by CLSI broth micro-dilution method in 96-wells microtitre plates. […] Optical density was recorded by DTX 880 multimode detector (Beckman Coulter, California, US). […]

B. subtilis WT168 = assay: MIC by CLSI broth micro-dilution, B. subtilis WT168; settings: Bacillus subtilis, read-out: Minimum inhibitory concentration
Protocol: as §1, §2, §3

human red blood cell = assay: Hemolysis assay; settings: up to the highest concentration 100 μM, 2 hours, 37° C.
Protocol: FIGS. 3A-3B are diagrams showing the hemolysis ability of compound 8 (FIG. 3A) and compound 35 (FIG. 3B) towards human red blood cell. % Hemolysis were mean±S.D of biological triplicates normalized to 0.1% triton X-100 as positive control.
Citrate-phosphate-dextrose (CPD) human whole blood was obtained from Hong Kong Red Cross. Whole blood was centrifuged in 1000 rpm for 10 minutes to remove the upper plasma layer. The remaining portion was washed by 1×PBS 3 times or until the upper PBS layer was transparent. The upper PBS layer was removed and the lower blood cell layer was diluted into 2% in PBS. 200 μL 2% blood in PBS was then added to round-bottom 96-well plate. Compounds were subsequently added to 96-well plate on 1% DMSO concentration. After incubation in 37° C. for 2 hours, the round-bottom 96-well plate was centrifuged in 1000 rpm for 10 minutes. 50 μL supernatant was transferred to a flat-bottom 96-well plate. Absorbance at 405 nm was then measured by Beckman Coulter DTX 880 Multimode Detector. Biological replicates were performed.

[2] = system: pre-established Staphylococcus aureus ATCC 35556 biofilm; assay: Reduction of established biofilm (crystal violet); settings: 24 hours pre-established biofilm treated 24 hours, concentration dependent
Protocol: 24 hours pre-established Staphylococcus. aureus ATCC 35556 biofilm was treated with various concentrations of compound 8, compound 35 or 1% DMSO as negative control for 24 hours. Biofilm was quantified using crystal violet. The data were normalized to DMSO (100% biofilm) and represent average values±S.D. (n=9 per group). Statistical analysis was performed by ANOVA with Dunnett's post-test to calculate p-values adjusted for multiple comparisons with DMSO as control condition (*p<0.05; **p<0.01; ***p<0.001).
Briefly, overnight cultures of Staphylococcus aureus ATCC 35556 in TSB were diluted 1:100 and regrow for 2.5 hours at 37° C., 250 rpm. The bacteria were diluted 1:100 into fresh TSB and 200 μL bacteria in TSB was added to each well of a flat-bottom 96-well plate (200 μL/well). The plate was incubated at 37° C. for 24 hours to establish biofilms. After 24 hours, the supernatant was removed and washed by PBS (200 μL) 2 times. Premixed solution of TSB and compound was prepared in a separate 96-well-plate (200 μL/well; two-folded serial dilutions; final DMSO concentration of maximum 1%). 200 μL compound in TSB was transferred to the plates with established biofilms. […] Following a 1:4 dilution step (33% acetic acid), the optical density was measured at 595 nm by Beckman Coulter DTX 880 Multimode Detector. […]

[3] = system: Staphylococcus aureus ATCC 29213; assay: Autolysis, optical density of culture; settings: 10×MIC, 24 hours
Protocol: Staphylococcus aureus ATCC 29213 in CAMH was challenged with […] compounds 8 or compound 35. OD595 was measured after 24 hours. Data represented the mean±S.D. of biological triplicates. Statistical analysis was performed by unpaired t test in 95% confidence interval (*=p<0.05; **p<0.01; ***p<0.001; ****[…]).
The overnight culture of Staphylococcus aureus ATCC 29213 was subcultured, regrown to exponential phase and then diluted to OD595=0.4. Bacteria were treated by 10×MIC of compound 8 and compound 35. At T=24 hour, OD595 was measured.

[4] = MRSA Mu3 (Table 2), read-out: Minimum inhibitory concentration
[5] = MRSA, CLSI broth micro-dilution, CAMH, read-out: Minimum inhibitory concentration (μM) in MRSA Mu3

Structure (SMILES)	MIC [1, 4]	MIC [1, 5]	MIC (MRSA-USA300LAC)	MIC (B. subtilis WT168)	hemolytic activity on human blood cell (human red blood cell)	established Staphylococcus aureus biofilm [2]	optical density (OD595) of culture, accelerated autolysis [3]
CC(C)C[C@H](ONC(=O)[C@@H](COCc1ccccc1)ONC(=O)c1cc(C(F)(F)F)cc(C(F)(F)F)c1)C(=O)Nc1ccccc1 [Compound 8]	3.13 µM (≈ 2.05 µg/mL)	3.13 µM (≈ 2.05 µg/mL)	3.13 µM (≈ 2.05 µg/mL)	3.13 µM (≈ 2.05 µg/mL)	didn't have observable hemolytic activity	significantly reduced	reduction of the optical density
CC(C)C[C@H](ONC(=O)[C@@H](COCc1ccccc1)ONC(=O)c1cc(C(F)(F)F)cc(C(F)(F)F)c1)C(=O)Nc1ccc2c(c1)OC(F)(F)O2 [Compound 35]	0.78 µM (≈ 0.574 µg/mL)	0.781 µM (≈ 0.574 µg/mL)	1.56 µM (≈ 1.15 µg/mL)	1.56 µM (≈ 1.15 µg/mL)	didn't have observable hemolytic activity	significantly reduced	reduction of the optical density
